Measured values taken from patent US8163756B2 (priority 2004, dated 2012).

Assays:
Assay type in all cases: biochemical
KDR kinase = KDR kinase (Homo sapiens, UniProt P35968, DEL940-989/E990V); experiment: KDR kinase assay K2 (as K1, 2.1 nM enzyme, 2 h pre-incubation, 1.0 mM ATP); conditions: Method K2; read-out: KDR Data (IC50)
Protocol: IC50 values were calculated from a series of percent inhibition values determined at a range of inhibitor concentrations using software routines as implemented in the GraphPad Prism software package.

B-Raf(V599E) kinase = B-Raf(V599E) kinase (Homo sapiens, UniProt P15056, V600E); experiment: B-Raf(V599E) kinase assay B1 (construct 1, MEK1 substrate, coupled spectrophotometric)
B-Raf(V599E) kinase, sequence (P15056 with tags, fused parts or gaps V600E): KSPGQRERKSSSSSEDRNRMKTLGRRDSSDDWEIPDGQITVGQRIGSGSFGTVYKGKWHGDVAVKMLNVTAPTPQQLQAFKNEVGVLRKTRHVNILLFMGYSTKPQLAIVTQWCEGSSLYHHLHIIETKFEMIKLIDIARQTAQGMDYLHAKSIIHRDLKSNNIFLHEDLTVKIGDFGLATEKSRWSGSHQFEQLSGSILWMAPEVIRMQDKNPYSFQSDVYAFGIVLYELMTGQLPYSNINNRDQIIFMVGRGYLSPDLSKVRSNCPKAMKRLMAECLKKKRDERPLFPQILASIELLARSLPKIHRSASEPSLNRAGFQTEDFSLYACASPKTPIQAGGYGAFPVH
Protocol: The test compounds were incubated with the reaction mixtureat 30° C. for 2 h. […] The reaction rate was calculated using the […] time frame. […] IC50 values were calculated from a series of percent inhibition values determined at a range of inhibitor concentrations using software routines as implemented in the GraphPad Prism software package.

[1] = target: phosphorylated p-38-alpha kinase (Homo sapiens, UniProt Q16539); experiment: P-38 alpha kinase assay P1 (coupled spectrophotometric, 2 h pre-incubation); conditions: method P1 (2 h pre-incubation); read-out: P-38 Data
phosphorylated p-38-alpha kinase, sequence (Q16539 1-360 isoform Q16539-2): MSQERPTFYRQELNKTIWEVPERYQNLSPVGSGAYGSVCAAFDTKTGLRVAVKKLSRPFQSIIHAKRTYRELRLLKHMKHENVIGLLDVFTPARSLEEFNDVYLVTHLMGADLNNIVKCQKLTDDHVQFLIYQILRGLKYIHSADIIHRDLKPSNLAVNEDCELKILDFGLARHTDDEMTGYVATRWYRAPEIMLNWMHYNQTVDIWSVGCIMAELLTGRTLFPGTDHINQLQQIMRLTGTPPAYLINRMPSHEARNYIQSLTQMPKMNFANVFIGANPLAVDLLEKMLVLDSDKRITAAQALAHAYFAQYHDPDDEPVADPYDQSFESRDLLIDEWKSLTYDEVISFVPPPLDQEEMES

KDR kinase, sequence (P35968 with tags, fused parts or gaps DEL940-989/E990V): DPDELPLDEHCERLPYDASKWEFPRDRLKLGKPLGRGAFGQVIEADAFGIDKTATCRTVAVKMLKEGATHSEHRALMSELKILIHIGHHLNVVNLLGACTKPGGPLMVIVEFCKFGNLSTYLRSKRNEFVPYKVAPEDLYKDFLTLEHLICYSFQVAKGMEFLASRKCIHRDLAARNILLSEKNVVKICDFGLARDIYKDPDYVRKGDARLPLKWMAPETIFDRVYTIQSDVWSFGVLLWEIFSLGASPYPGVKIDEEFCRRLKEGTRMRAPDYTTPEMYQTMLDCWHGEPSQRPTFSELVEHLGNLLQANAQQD

SMILES	IC50 (KDR kinase)	IC50 (B-Raf(V599E) kinase)	IC50 [1]
CC(C)(C)c1cc(NC(=O)Nc2cccc(Cl)c2Cl)n(-c2cccc(Br)c2)n1 [Example 49, 1-(1-(3-bromophenyl)-3-t-butyl-1H-pyrazol-5-yl)-3-(2,3-dichlorophenyl)urea]	86 nM	3.8 nM	
CC(C)(C)c1cc(NC(=O)Nc2cccc3ccccc23)n(-c2ccc3c(c2)CCC(=O)N3)n1 [Example 198, 1-(3-t-butyl-1-(2-oxo-1,2,3,4-tetrahydroquinolin-6-yl)-1H-pyrazol-5-yl)-3-(naphthalen-1-yl)urea]	1300 nM		59 nM
CC(C)(C)c1cc(NC(=O)Nc2ccc(F)c(F)c2F)n(-c2cccc(C#N)c2)n1 [Example 210, 1-(3-t-butyl-1-(3-cyanophenyl)-1H-pyrazol-5-yl)-3-(2,3,4-trifluorophenyl)urea]	110 nM		24 nM
CC(C)(C)c1cc(NC(=O)Nc2ccc(Cl)cc2)n(-c2cccc(CN3C(=O)C(=O)NS3(=O)=O)c2)n1 [Example 225, 1-{5-t-butyl-2-[3-(1,1,3,4-tetraoxo-1λ^6-[1,2,5]thiadiazolidin-2-ylmethyl)phenyl]-2H-pyrazol-3-yl}-3-(4-chlorophenyl)urea]	9600 nM	170 nM	
COc1cccc(-n2nc(C(C)(C)C)cc2NC(=O)Nc2cccc(Br)c2)c1 [Example 232, 1-(3-t-butyl-1-(3-methoxyphenyl)-1H-pyrazol-5-yl)-3-(3-bromophenyl)urea]	2600 nM	38 nM	
CC(C)(C)c1cc(NC(=O)Nc2cccc(F)c2F)n(-c2ccc(CCO)cc2)n1 [Example 262, 1-(3-t-butyl-1-(4-(2-hydroxyethyl)phenyl)-1H-pyrazol-5-yl)-3-(2,3-difluoro-phenyl)urea]	2700 nM	34 nM	
CC(C)(C)c1cc(NC(=O)Nc2ccccc2F)n(-c2cccc(CCC(=O)O)c2)n1 [Example 265, 3-(3-{3-t-butyl-5-[3-(2-fluorophenyl)ureido]-1H-pyrazol-1-yl}-phenyl)propionic acid]	9800 nM	14 nM	
Cn1[nH]c(=O)n(Cc2cccc(-n3nc(C(C)(C)C)cc3NC(=O)Nc3cccc(Cl)c3Cl)c2)c1=O [Example 268, 1-{5-t-butyl-2-[3-(1-methyl-3,5-dioxo-[1,2,4]triazolidin-4-ylmethyl)-phenyl]-2H-pyrazol-3-yl}-3-(2,3-dichloro-phenyl)-urea]	2600 nM	11 nM	
CC(C)(C)c1cc(NC(=O)Nc2cccc(F)c2F)n(-c2ccc3ncccc3c2)n1 [Example 283, 1-(3-t-butyl-1-(quinolin-6-yl)-1H-pyrazol-5-yl)-3-(2,3-difluorophenyl)urea]	440 nM	6.4 nM	
CC(C)(C)c1cc(NC(=O)Nc2cc(F)c(F)cc2F)n(-c2ccc3[nH]c(=O)ccc3c2)n1 [Example 330]	390 nM	3.2 nM	
CC(C)(C)c1cc(NC(=O)Nc2ccc(F)c(F)c2F)n(-c2ccc3[nH]c(=O)ccc3c2)n1 [Example 333, 1-(3-t-butyl-1-(2-oxo-1,2-dihydroquinolin-6-yl)-1H-pyrazol-5-yl)-3-(2,3,4-trifluorophenyl)urea]	230 nM	3.4 nM	
CC(C)(C)c1cc(NC(=O)Nc2cccc(F)c2F)n(-c2ccc3c(c2)CCNC(=O)C3)n1 [Example 334, 1-(3-t-butyl-1-(2-oxo-2,3,4,5-tetrahydro-1H-benzo[d]azepin-7-yl)-1 H-pyrazol-5-yl)-3-(2,3-difluorophenyl)urea]	3400 nM	11 nM	
COc1cccc(-n2nc(C(C)(C)C)cc2NC(=O)Nc2ccc(Cl)c(Cl)c2)c1 [Example 337, 1-(3-t-butyl-1-(3-methoxyphenyl)-1H-pyrazol-5-yl)-3-(3,4-dichlorophenyl)urea]	2000 nM		
COc1cccc(-n2nc(C(C)(C)C)cc2NC(=O)Nc2ccc([N+](=O)[O-])cc2)c1 [Example 338, 1-(3-t-butyl-1-(3-methoxyphenyl)-1H-pyrazol-5-yl)-3-(4-nitrophenyl)urea]	5000 nM		
CC(C)(C)c1cc(NC(=O)Nc2ccc(Cl)cc2)n(-c2ccc3ncccc3c2)n1 [Example 339, 1-[3-t-butyl-1-(quinolin-6-yl)-1H-pyrazol-5-yl]-3-(4-chlorophenyl)urea]	1200 nM		
CC(C)(C)c1cc(NC(=O)Nc2cccc3ccccc23)n(-c2cccc(CCO)c2)n1 [Example 341, 1-{3-t-butyl-1-[3-(2-hydroxyethyl)phenyl]-1H-pyrazol-5-yl}-3-(naphthalen-1-yl)urea]	5500 nM		27 nM
CC(C)(C)c1cc(NC(=O)Nc2ccc(Cl)cc2)n(-c2cccc(CCO)c2)n1 [Example 342, 1-{3-t-butyl-1-[3-(2-hydroxyethyl)phenyl]-1H-pyrazol-5-yl}-3-(4-chlorophenyl)-urea]	5700 nM		
CC(C)(C)c1cc(NC(=O)Nc2ccc(Cl)cc2)n(-c2cccc(CNC(=O)N3CCOCC3)c2)n1 [Example 343, 1-(3-t-butyl-1-{3-[(morpholine-4-carboxamido)methyl]phenyl}-1H-pyrazol-5-yl)-3-(4-chlorophenyl)urea]	18000 nM		
CCOC(=O)C1CCN(C(=O)Cc2cccc(-n3nc(C(C)(C)C)cc3NC(=O)Nc3cccc(Cl)c3Cl)c2)CC1 [Example 344, ethyl 1-[2-(3-{3-t-butyl-5-[3-(2,3-dichlorophenyl)ureido]-1H-pyrazol-1-yl}phenyl)acetyl]piperidine-4-carboxylate]	2700 nM		
CCOC(=O)C1CCCN(C(=O)Cc2ccc(-n3nc(C(C)(C)C)cc3NC(=O)Nc3cccc(Cl)c3Cl)cc2)C1 (stereo not drawn) [Example 346, ethyl 1-[2-(4-{3-t-butyl-5-[3-(2,3-dichlorophenyl)ureido]-1H-pyrazol-1-yl}phenyl)acetyl]piperidine-3-carboxylate]	1700 nM		
CC(C)(C)c1cc(NC(=O)Nc2cccc3ccccc23)n(-c2ccc3c(c2)C(=O)NCC3)n1 [Example 348, 1-[3-t-butyl-1-(1-oxo-1,2,3,4-tetrahydroisoquinolin-7-yl)-1 H-pyrazol-5-yl]-3-(naphthalen-1-yl)urea]	16500 nM		
CC(C)(C)c1cc(NC(=O)Nc2cccc(F)c2F)n(-c2ccc(CC(=O)O)cc2)n1 [Example 382, 2-(4-(3-t-butyl-5-(3-(2,3-difluorophenyl)ureido)-1H-pyrazol-1-yl)phenyl)acetic acid]	10300 nM	77 nM	
CC(C)(C)c1cc(NC(=O)Nc2cccc(Cl)c2Cl)n(-c2cccc(CC(=O)N3CCS(=O)(=O)CC3)c2)n1 [Example 396, 1-(3-t-butyl-1-{3-[2-(1,1-dioxo-1[…]6-thiomorpholin-4-yl)-2-oxoethyl]phenyl}-1H-pyrazol-5-yl)-3-(2,3-dichlorophenyl)urea]	3100 nM	32 nM	
CCOC(=O)C1CCCN(C(=O)Cc2cccc(-n3nc(C(C)(C)C)cc3NC(=O)Nc3cccc(Cl)c3Cl)c2)C1 (stereo not drawn) [Example 397, ethyl 1-[2-(3-{3-t-butyl-5-[3-(2,3-dichlorophenyl)ureido]-1H-pyrazol-1-yl}phenyl)acetyl]piperidine-3-carboxylate]	3400 nM	57 nM	
CCOC(=O)C1CCN(C(=O)Cc2ccc(-n3nc(C(C)(C)C)cc3NC(=O)Nc3cccc(Cl)c3Cl)cc2)CC1 [Example 497]	1200 nM	47 nM	
